Reference: patent publication US20230174484A1, “ANTAGONISTS OF GPR39 PROTEIN” (Oregon Health & Science University, priority 2020, published 2023)
pKi: −log10 of the molar value.

molecular target: T1, human GPR39 receptor (Homo sapiens, UniProt O43194); assay: Measurement of intracellular calcium response in PC3 cells (FLIPR), antagonism of the C3 agonist response; assay type: cell-based; settings: functional pKi (modified Cheng-Prusoff), inhibition of the C3 (TC-G 1008) response at EC90, 30 μM ZnCl2, read-out: fpKi activity
T1 construct: PC3 Cells, Expressing the Endogenous Human GPR39 Receptor; endogenous in cells; host or cells: PC3 (human prostate adenocarcinoma) cells
T1 sequence (O43194 1-453): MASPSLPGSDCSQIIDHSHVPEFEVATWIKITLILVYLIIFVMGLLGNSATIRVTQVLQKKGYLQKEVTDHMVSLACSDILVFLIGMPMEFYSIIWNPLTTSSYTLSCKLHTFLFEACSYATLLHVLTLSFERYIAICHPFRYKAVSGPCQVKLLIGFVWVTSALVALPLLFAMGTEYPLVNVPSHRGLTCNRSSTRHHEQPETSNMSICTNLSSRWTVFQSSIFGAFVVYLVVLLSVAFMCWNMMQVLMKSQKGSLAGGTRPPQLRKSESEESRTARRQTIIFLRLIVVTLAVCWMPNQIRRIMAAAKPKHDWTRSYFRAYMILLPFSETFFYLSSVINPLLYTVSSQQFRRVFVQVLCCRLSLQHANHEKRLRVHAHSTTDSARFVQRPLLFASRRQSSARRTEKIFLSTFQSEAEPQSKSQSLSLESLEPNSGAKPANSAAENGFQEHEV
How it was run: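 PC3 cells with endogenous human GPR39 were loaded with Calcium-6 and read by FLIPR, with compounds tested in buffer with 30 μM final ZnCl2 and 0.32% DMSO. Peak Ca2+ signal was scored as % inhibition of the EC90 C3 response, fitted by four-parameter logistic. Functional pKi was derived via the modified Cheng-Prusoff equation.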

pKi	SMILES
≥ 7.30	CCCN1CCN(C(=O)c2ccc(NC(=O)C3CC3)cc2-n2ccc(C(F)(F)F)n2)CC1 [Example 158, N-[4-(4-propylpiperazine-1-carbonyl)-3-[3-(trifluoromethyl)pyrazol-1-yl]phenyl]cyclopropanecarboxamide]
≥ 7.30	CN1CCN(C(=O)c2ccc(NC(=O)C3CC3)cc2N2CCCC2)C(c2cccc(Cl)c2)C1 (single isomer, unassigned) [Example 171b, (2R or 2S) N-[4-[2-(3-chlorophenyl)-4-methylpiperazine-1-carbonyl]-3-pyrrolidin-1-ylphenyl] cyclopropanecarboxamide]
6.00 to 6.50	CN1CCN(C(=O)c2ccc(NC(=O)C3CC3)cc2N2CCCC2)C(c2ccccc2Cl)C1 (single isomer, unassigned) [Example 170b, (2R or 2S) N-[4-[2-(2-chlorophenyl)-4-methylpiperazine-1-carbonyl]-3-pyrrolidin-1-ylphenyl]cyclopropanecarboxamide]
5.20 to 5.90	CCCN1CCN(C(=O)c2ccc(NC(=O)c3ccccc3)cc2N2CCCCCC2)CC1 [Example 91, N-(3-(azepan-1-yl)-4-(4-propylpiperazine-1-carbonyl)phenyl)benzamide]
≥ 7.30	CN1CCN(C(=O)c2ccc(NC(=O)C3CC3)cc2N2CCC3(CCC3)C2)C(c2cccs2)C1 (racemic) [Example 85, N-[3-(6-azaspiro[3.4]octan-6-yl)-4-(4-methyl-2-thiophen-2-ylpiperazine-1-carbonyl)phenyl]Cyclopropanecarboxamide]
5.20 to 5.90	CCCN1CCN(C(=O)c2ccc(NC(=O)C3CC3)cc2-c2ccccc2)CC1 [Example 10, N-(6-(4-propylpiperazine-1-carbonyl)-[1,1′-biphenyl]-3-yl)cyclopropanecarboxamide]
6.60 to 7.20	O=C(Nc1ccc(C(=O)N2CCCCC2)c(N2CCCCCC2)c1)C1CC1 [Example 35, N-(3-(azepan-1-yl)-4-(piperidine-1-carbonyl)phenyl)cyclopropanecarboxamide]
6.00 to 6.50	CN1CCN(C(=O)c2ccc(NC(=O)C3CC3)cc2N2CC3(COC3)C2)C(c2ccccc2)C1 (stereo not drawn) [Example 204, N-[4-(4-methyl-2-phenylpiperazine-1-carbonyl)-3-(2-oxa-6-azaspiro[3.3]heptan-6-yl)phenyl]cyclopropanecarboxamide]
6.60 to 7.20	O=C(Nc1ccc(C(=O)N2CCS(=O)(=O)CC2)c(N2CCC(C(F)(F)F)C2)c1)C1CC1 (single isomer, unassigned) [Example 183b, N-[4-(1,1-dioxo-1,4-thiazinane-4-carbonyl)-3-[3R or 3S-(trifluoromethyl)pyrrolidin-1-yl]phenyl]cyclopropanecarboxamide]
6.60 to 7.20	Cc1ccn(-c2cc(NC(=O)C3CC3)ccc2C(=O)N2CCC(C(F)(F)F)CC2)n1 [Example 156]
5.20 to 5.90	CCCN1CCN(C(=O)c2ccc(NC(=O)C3CC3)cc2N2CCC(F)(F)CC2)CC1 [Example 7, N-(3-(4,4-difluoropiperidin-1-yl)-4-(4-propylpiperazine-1-carbonyl)phenyl) cyclopropanecarboxamide]
6.60 to 7.20	O=C(Nc1ccc(C(=O)N2CCN(Cc3ccon3)CC2)c(N2CCCCCC2)c1)C1CC1 [Example 22, N-(3-(azepan-1-yl)-4-(4-(isoxazol-3-ylmethyl)piperazine-1-carbonyl)phenyl) cyclopropanecarboxamide]
6.60 to 7.20	Cn1c(Sc2ccccc2)nnc1-c1ccc(NC(=O)C2CC2)cc1N1CCCCCC1 [Example 110, N-[3-(azepan-1-yl)-4-(4-methyl-5-phenylsulfanyl-1,2,4-triazol-3-yl)phenyl]cyclopropanecarboxamide]
6.60 to 7.20	O=C(c1ccc(-c2nnc(C3CC3)[nH]2)cc1N1CCCC1)N1CCC(C(F)(F)F)CC1 [Example 154]
6.60 to 7.20	CCCC1CCN(C(=O)c2ccc(NC(=O)C3CC3)cc2N2CCCCCC2)CC1 [Example 47, N-(3-(azepan-1-yl)-4-(4-propylpiperidine-1-carbonyl)phenyl)cyclopropanecarboxamide]
6.60 to 7.20	CCCN1CCN(C(=O)c2ccc(NC(=O)C3CC3)cc2N2CCC(C)CC2)CC1 [Example 15, N-(3-(4-methylpiperidin-1-yl)-4-(4-propylpiperazine-1-carbonyl)phenyl) cyclopropanecarboxamide]
6.00 to 6.50	CCCN1CCN(C(=O)c2ccc(NC(=O)C3CC3)cc2N2CC3CC3C2)CC1 (stereo not drawn) [Example 12, N-(3-(3-azabicyclo[3.1.0]hexan-3-yl)-4-(4-propylpiperazine-1-carbonyl)phenyl)cyclopropanecarboxamide]

pKi	SMILES
6.00 to 6.50	CCCN1CCN(C(=O)c2ccc(NC(=O)C3CC3(F)F)cc2N2CCCCCC2)CC1 (stereo not drawn) [Example 92]
6.60 to 7.20	O=C(Nc1ccc(C(=O)N2CCN(Cc3ncco3)CC2c2ccccc2)c(N2CCCCCC2)c1)C1CC1 (stereo not drawn) [Example 83, N-[3-(azepan-1-yl)-4-[4-(1,3-oxazol-2-ylmethyl)-2-phenylpiperazine-1-carbonyl]phenyl]cyclopropanecarboxamide]
≥ 7.30	CN1CCN(C(=O)c2ccc(NC(=O)C3CC3)cc2N2CCC3(CCC3)C2)C(c2ccccc2)C1 (racemic) [Example 66c, N-[3-(6-azaspiro[3.4]octan-6-yl)-4-(4-methyl-2-phenylpiperazine-1-carbonyl)phenyl]cyclopropanecarboxamide]
6.60 to 7.20	CC1CC(C)CN(c2cc(NC(=O)C3CC3)ccc2C(=O)N2CCN(C)CC2c2ccccc2)C1 (single isomer, unassigned) [Example 68e, Anti N-[3-[3,5-dimethylpiperidin-1-yl]-4-(4-methyl-2-phenylpiperazine-1-carbonyl)phenyl]cyclopropanecarboxamide]
≥ 7.30	CCCN1CCN(C(=O)c2ccc(NC(=O)C3CC3)cc2N2CCCCCC2)C(c2ccccc2)C1 (racemic) [Example 73c, N-[3-(azepan-1-yl)-4-(2-phenyl-4-propylpiperazine-1-carbonyl)phenyl]Cyclopropanecarboxamide]
5.20 to 5.90	CC1CN(c2cc(NC(=O)C3CC3)ccc2C(=O)N2CCS(=O)(=O)CC2)CC(C)O1 (racemic) [Example 188, N-[3-[(anti)-2,6-dimethylmorpholin-4-yl]-4-(1,1-dioxo-1,4-thiazinane-4-carbonyl)phenyl]cyclopropanecarboxamide]
≥ 7.30	O=C(Nc1ccc(C(=O)N2CCS(=O)(=O)CC2)c(N2CCC(C(F)(F)F)C2)c1)C1CC1 (single isomer, unassigned) [Example 183a, N-[4-(1,1-dioxo-1,4-thiazinane-4-carbonyl)-3-[3r or 3S-(trifluoromethyl)pyrrolidin-1-yl]phenyl]cyclopropanecarboxamide]
6.00 to 6.50	Cc1noc(C)c1CN1CCN(C(=O)c2ccc(NC(=O)C3CC3)cc2N2CCCCCC2)C(c2ccccc2)C1 (stereo not drawn) [Example 81, N-[3-(azepan-1-yl)-4-[4-[(3,5-dimethyl-1,2-oxazol-4-yl)methyl]-2-phenylpiperazine-1-carbonyl]phenyl]cyclopropanecarboxamide]
6.00 to 6.50	CN1CCN(C(=O)c2ccc(NC(=O)C3CC3)cc2N2CCCC2)C(c2cccnc2)C1 (racemic) [Example 173, N-[4-(4-methyl-2-pyridin-3-ylpiperazine-1-carbonyl)-3-pyrrolidin-1-ylphenyl]cyclopropanecarboxamide]
6.60 to 7.20	CN1CCN(C(=O)c2ccc(NC(=O)C3CC3)cc2N2CCCCCC2)C(Cc2ccccc2)C1 (stereo not drawn) [Example 76, N-[3-(azepan-1-yl)-4-(2-benzyl-4-methylpiperazine-1-carbonyl)phenyl]Cyclopropanecarboxamide]
6.00 to 6.50	Cc1ccn(-c2cc(NC(=O)C3CC3)ccc2C(=O)N2CCN(C)CC2c2ccccc2)n1 (single isomer, unassigned) [Example 155a, (2R or 2S) N-[4-(4-methyl-2-phenylpiperazine-1-carbonyl)-3-(3-methylpyrazol-1-yl)phenyl] cyclopropanecarboxamide]
6.60 to 7.20	O=C(Nc1ccc(C(=O)N2CCS(=O)(=O)CC2)c(N2CCCC3(CC3)C2)c1)C1CC1 [Example 189, N-[3-(5-azaspiro[2.5]octan-5-yl)-4-(1,1-dioxo-1,4-thiazinane-4-carbonyl)phenyl]cyclopropanecarboxamide]
≥ 7.30	Cc1nnc(-c2ccc(C(=O)N3CCC(F)(F)CC3)c(-n3ccc(C(F)(F)F)n3)c2)[nH]1 [Example 208]
6.60 to 7.20	O=C(Nc1ccc(C(=O)N2CCS(=O)(=O)CC2)c(N2CCCC2)c1)C1CC1 [Example 60, N-[4-(1,1-dioxo-1,4-thiazinane-4-carbonyl)-3-pyrrolidin-1-ylphenyl] Cyclopropanecarboxamide]
5.20 to 5.90	CN1CCN(C(=O)c2ccc(-c3nccn3C)cc2N2CCCC2)C(c2ccccc2)C1 (racemic) [Example 121, [4-(1-methylimidazol-2-yl)-2-pyrrolidin-1-ylphenyl]-(4-methyl-2-phenylpiperazin-1-yl)methanone]
6.00 to 6.50	Cc1ccn(-c2cc(NC(=O)C3CC3)ccc2C(=O)N2CCN(C)CC2c2ccccc2)n1 (racemic) [Example 155c, N-[4-(4-methyl-2-phenylpiperazine-1-carbonyl)-3-(3-methylpyrazol-1-yl)phenyl]cyclopropanecarboxamide]
